{
  "source": "ChEMBL document CHEMBL4257535",
  "about": "“Design, synthesis and biological evaluation of AKT inhibitors bearing a piperidin-4-yl appendant” (Medchemcomm, 2018)",
  "key": {"[1]": {"molecular_target": "RAC-alpha serine/threonine-protein kinase (Homo sapiens, UniProt P31749)", "sequence (P31749 whole entry)": "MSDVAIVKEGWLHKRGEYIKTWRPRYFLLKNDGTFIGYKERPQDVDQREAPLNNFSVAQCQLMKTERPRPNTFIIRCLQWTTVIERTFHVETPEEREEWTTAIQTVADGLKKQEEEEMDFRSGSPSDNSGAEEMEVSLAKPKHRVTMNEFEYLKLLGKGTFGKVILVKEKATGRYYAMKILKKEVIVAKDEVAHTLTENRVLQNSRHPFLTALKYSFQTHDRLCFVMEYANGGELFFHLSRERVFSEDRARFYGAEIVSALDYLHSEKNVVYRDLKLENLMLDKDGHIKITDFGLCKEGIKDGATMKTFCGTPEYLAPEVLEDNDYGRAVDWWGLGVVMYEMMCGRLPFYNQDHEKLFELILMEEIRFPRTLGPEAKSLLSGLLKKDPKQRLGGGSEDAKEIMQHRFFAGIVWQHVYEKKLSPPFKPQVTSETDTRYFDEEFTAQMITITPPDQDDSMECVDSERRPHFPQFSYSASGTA", "experiment": "Inhibition of AKT1 (unknown origin) using biotin-labelled STK as substrate measured after 45 mins by HTRF method"}, "[2]": {"molecular_target": "MAP kinase-interacting serine/threonine-protein kinase 1 (Homo sapiens) (UniProt Q9BUB5)", "experiment": "Inhibition of MNK1 (unknown origin) at 1 uM after 40 mins by scintillation counting method relative to control"}, "[3]": {"molecular_target": "Ribosomal protein S6 kinase alpha-1 (Homo sapiens) (UniProt Q15418)", "sequence (Q15418 whole entry)": "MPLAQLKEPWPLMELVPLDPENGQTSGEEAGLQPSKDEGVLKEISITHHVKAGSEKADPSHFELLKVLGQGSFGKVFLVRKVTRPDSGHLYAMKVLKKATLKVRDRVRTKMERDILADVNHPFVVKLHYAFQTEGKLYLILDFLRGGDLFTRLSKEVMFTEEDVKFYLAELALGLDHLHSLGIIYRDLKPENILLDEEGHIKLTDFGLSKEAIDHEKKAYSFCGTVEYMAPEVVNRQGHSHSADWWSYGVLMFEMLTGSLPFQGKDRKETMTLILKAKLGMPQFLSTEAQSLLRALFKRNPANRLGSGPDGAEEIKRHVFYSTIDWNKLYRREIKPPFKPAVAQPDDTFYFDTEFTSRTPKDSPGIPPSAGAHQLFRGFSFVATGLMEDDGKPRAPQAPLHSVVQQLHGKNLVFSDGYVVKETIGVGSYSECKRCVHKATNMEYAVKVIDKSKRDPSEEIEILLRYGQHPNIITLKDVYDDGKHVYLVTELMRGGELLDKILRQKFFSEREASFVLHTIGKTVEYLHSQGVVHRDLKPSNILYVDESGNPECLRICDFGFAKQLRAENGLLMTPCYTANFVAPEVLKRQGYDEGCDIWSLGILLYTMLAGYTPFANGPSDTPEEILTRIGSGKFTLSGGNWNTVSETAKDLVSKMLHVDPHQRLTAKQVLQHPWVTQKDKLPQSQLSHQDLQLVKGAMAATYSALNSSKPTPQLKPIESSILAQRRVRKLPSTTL", "experiment": "Inhibition of RSK1 (unknown origin) at 1 uM after 40 mins by scintillation counting method relative to control"}, "[4]": {"molecular_target": "Serine/threonine-protein kinase B-raf (Homo sapiens) (UniProt P15056)", "sequence (P15056 whole entry)": "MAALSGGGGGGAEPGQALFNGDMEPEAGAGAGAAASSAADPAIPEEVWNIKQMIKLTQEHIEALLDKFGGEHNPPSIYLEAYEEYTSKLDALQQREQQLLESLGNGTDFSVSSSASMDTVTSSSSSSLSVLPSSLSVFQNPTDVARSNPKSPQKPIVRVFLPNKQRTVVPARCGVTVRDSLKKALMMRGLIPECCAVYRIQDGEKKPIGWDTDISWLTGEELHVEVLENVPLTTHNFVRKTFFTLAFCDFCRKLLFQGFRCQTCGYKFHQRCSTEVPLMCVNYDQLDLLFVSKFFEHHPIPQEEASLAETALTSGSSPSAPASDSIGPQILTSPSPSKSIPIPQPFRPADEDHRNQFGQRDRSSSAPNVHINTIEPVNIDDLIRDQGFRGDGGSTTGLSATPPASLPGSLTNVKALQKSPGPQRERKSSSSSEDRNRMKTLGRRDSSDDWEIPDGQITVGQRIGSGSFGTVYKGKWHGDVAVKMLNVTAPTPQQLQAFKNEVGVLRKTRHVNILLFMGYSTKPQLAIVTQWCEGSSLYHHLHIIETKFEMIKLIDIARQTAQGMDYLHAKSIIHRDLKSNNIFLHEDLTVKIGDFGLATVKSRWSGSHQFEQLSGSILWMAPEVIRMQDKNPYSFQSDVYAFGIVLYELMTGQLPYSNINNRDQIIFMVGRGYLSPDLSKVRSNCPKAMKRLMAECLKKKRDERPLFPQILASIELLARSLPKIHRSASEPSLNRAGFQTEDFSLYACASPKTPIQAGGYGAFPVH", "experiment": "Inhibition of BRAF (unknown origin) at 1 uM after 40 mins by scintillation counting method relative to control"}, "[5]": {"molecular_target": "Glycogen synthase kinase-3 beta (Homo sapiens) (UniProt P49841)", "sequence (P49841 whole entry, looked up)": "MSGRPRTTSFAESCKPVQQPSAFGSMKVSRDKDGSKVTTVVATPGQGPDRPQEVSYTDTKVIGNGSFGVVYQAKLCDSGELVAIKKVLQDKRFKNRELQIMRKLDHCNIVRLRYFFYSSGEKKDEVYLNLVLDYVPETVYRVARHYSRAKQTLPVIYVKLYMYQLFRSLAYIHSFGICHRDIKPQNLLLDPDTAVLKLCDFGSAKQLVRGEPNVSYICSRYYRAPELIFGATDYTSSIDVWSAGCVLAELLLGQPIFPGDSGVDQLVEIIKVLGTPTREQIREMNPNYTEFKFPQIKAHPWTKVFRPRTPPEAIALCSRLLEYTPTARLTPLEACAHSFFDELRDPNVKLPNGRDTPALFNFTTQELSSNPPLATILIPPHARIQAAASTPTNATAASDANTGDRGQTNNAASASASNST", "experiment": "Inhibition of GSK3beta (unknown origin) at 1 uM after 40 mins by scintillation counting method relative to control"}, "[6]": {"molecular_target": "T1, 3-phosphoinositide-dependent protein kinase 1 (Homo sapiens) (UniProt O15530)", "T1 sequence (whole entry)": "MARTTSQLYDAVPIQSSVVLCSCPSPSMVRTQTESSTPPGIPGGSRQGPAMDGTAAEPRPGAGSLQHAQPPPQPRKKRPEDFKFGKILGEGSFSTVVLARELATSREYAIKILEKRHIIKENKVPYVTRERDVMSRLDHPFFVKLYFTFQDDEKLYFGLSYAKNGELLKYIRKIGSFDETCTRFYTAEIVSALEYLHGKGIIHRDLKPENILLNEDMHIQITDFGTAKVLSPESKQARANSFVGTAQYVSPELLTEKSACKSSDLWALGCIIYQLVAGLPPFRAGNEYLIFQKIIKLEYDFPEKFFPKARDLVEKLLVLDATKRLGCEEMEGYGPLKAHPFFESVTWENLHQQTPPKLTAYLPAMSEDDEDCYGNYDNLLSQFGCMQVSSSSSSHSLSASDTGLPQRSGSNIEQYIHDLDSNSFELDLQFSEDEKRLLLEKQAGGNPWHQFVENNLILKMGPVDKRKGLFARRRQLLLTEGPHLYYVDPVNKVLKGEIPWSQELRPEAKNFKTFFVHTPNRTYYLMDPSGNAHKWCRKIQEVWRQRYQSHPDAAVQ", "experiment": "Inhibition of PDK1 (unknown origin) at 1 uM after 40 mins by scintillation counting method relative to control"}, "[7]": {"molecular_target": "Protein kinase C alpha type (Homo sapiens) (UniProt P17252)", "experiment": "Inhibition of PKCalpha (unknown origin) at 1 uM after 40 mins by scintillation counting method relative to control"}, "[8]": {"molecular_target": "Rho-associated protein kinase 1 (Homo sapiens) (UniProt Q13464)", "sequence (Q13464 2-1354 limits assumed)": "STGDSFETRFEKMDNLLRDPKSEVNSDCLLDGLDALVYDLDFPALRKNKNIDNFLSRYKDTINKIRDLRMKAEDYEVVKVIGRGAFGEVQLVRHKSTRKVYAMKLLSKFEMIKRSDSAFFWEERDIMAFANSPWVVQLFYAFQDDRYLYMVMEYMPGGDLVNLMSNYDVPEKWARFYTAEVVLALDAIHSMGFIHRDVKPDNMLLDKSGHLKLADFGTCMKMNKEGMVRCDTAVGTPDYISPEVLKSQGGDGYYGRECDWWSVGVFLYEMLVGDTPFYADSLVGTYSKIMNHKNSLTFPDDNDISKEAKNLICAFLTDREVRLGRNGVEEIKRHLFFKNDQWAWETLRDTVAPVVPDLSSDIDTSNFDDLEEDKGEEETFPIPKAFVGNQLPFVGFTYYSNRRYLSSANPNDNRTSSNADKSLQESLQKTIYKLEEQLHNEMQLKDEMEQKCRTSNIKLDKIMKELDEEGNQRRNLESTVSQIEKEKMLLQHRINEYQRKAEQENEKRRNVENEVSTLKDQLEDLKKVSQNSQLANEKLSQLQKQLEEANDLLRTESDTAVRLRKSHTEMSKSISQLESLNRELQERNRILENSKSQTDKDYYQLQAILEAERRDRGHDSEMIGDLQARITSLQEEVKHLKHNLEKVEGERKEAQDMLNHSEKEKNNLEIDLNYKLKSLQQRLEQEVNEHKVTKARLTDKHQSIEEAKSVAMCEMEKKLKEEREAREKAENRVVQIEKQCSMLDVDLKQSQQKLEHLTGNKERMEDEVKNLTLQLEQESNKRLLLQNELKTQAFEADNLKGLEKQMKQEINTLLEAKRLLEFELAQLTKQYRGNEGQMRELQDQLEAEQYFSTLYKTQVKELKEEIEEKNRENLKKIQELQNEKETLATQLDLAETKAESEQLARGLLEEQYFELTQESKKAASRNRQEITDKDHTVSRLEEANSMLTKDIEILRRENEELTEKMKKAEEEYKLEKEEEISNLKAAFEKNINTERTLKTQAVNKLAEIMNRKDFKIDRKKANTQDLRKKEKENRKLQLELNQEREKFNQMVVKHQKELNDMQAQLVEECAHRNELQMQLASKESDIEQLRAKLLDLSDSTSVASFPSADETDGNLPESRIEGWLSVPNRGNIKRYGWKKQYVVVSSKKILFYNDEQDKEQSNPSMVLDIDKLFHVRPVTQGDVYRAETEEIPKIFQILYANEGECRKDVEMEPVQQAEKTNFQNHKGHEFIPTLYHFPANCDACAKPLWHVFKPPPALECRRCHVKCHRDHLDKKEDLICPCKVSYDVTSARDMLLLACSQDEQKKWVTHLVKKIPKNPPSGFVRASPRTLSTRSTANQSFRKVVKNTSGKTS", "experiment": "Inhibition of ROCK1 (unknown origin) at 1 uM after 40 mins by scintillation counting method relative to control"}, "[9]": {"molecular_target": "RAC-beta serine/threonine-protein kinase (Homo sapiens) (UniProt P31751)", "sequence (P31751 whole entry)": "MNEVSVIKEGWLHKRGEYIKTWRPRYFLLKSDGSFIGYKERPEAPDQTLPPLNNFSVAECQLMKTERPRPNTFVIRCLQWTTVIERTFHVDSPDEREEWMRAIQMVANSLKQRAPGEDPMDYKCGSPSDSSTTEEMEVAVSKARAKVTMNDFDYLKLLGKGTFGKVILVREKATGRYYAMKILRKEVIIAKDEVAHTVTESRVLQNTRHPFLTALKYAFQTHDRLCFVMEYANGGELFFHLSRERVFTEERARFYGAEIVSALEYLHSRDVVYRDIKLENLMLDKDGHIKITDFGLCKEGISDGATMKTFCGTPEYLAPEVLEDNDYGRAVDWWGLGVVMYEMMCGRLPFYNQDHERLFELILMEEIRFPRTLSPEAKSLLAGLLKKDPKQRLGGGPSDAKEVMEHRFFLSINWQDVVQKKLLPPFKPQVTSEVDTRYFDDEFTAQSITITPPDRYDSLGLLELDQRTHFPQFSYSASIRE", "experiment": "Inhibition of AKT2 (unknown origin) at 10 nM after 40 mins by scintillation counting method relative to control"}, "[10]": {"test_system": "PC-3", "experiment": "Induction of apoptosis in human PC3 cells assessed as early apoptotic cells at 1 uM after 48 hrs by Annexin V-FITC/propidium iodide staining based flow cytometry (reference value: 1.05%)", "assay_type": "functional"}, "[11]": {"test_system": "PC-3", "experiment": "Induction of apoptosis in human PC3 cells assessed as live cells at 5 uM after 48 hrs by Annexin V-FITC/propidium iodide staining based flow cytometry (reference value: 97.19%)", "assay_type": "functional"}, "[12]": {"test_system": "PC-3", "experiment": "Induction of apoptosis in human PC3 cells assessed as late apoptotic cells at 5 uM after 48 hrs by Annexin V-FITC/propidium iodide staining based flow cytometry (reference value: 0.27%)", "assay_type": "functional"}, "[13]": {"test_system": "PC-3", "experiment": "Induction of apoptosis in human PC3 cells assessed as necrotic cells at 10 uM after 48 hrs by Annexin V-FITC/propidium iodide staining based flow cytometry (reference value: 1.48%)", "assay_type": "functional"}, "[14]": {"experiment": "in vitro", "set-up": "dose or concentration left out as unconfirmed", "details": "human, liver microsomes", "description": "Stability in human liver microsomes assessed as parent compound remaining at 10 mM preincubated for 10 mins followed by NADPH addition and measured after 60 mins by LC-MS analysis"}},
  "note": "The source made the active and inactive calls. The rule behind the calls is not given here.",
  "data": [
    {"smiles": "O=C(N1CCN(c2ncnc3[nH]nc(Cl)c23)CC1)C1(c2ccc(Cl)c(Cl)c2)CCNCC1", "values": [
      {"measurement": "IC50", "setting": "[1]", "result": 24.3, "unit": "nM"},
      {"measurement": "inhibition", "setting": "[2]", "result": 47, "unit": "%"},
      {"measurement": "inhibition", "setting": "[3]", "result": 83, "unit": "%"},
      {"measurement": "inhibition", "setting": "[4]", "result": "inactive"},
      {"measurement": "inhibition", "setting": "[5]", "result": "inactive"},
      {"measurement": "inhibition", "setting": "[6]", "result": "inactive"},
      {"measurement": "inhibition", "setting": "[7]", "result": "inactive"},
      {"measurement": "inhibition", "setting": "[8]", "result": "inactive"},
      {"measurement": "inhibition", "setting": "[9]", "result": 38, "unit": "%"},
      {"measurement": "Activity", "setting": "[10]", "result": 2.7, "unit": "%"},
      {"measurement": "Activity", "setting": "[11]", "result": 88.11, "unit": "%"},
      {"measurement": "Activity", "setting": "[12]", "result": 6.2, "unit": "%"},
      {"measurement": "Activity", "setting": "[13]", "result": 3.24, "unit": "%"},
      {"measurement": "remaining at 1 h", "setting": "[14]", "result": 81.8, "unit": "%"}
    ]}
  ]
}
